Data set [1] deals with ZR75, MDA-MB-468 and HCC1395 cell lines. Description: cytotoxicity of CGS-15943 analogs in sensitive and resistant cell lines. It is filed as cell-based. The settings on record: IC50 tables of FIGS. 8A to 8D. The text has this:
Biological replicates were averaged and normalized to vehicle control. Dose curves were generated using Graphpad Prism.

Data set [2] has as its system MDA-MB-231 breast cancer cell lines. Description: cytotoxicity, control cells vs cells overexpressing CYP1A1. It is filed as cell-based. As to conditions: control MDA-MB-231 compared with cells overexpressing CYP1A1. The source says: The dependence of each compound's cytotoxic effects upon CYP1A1 was also examined, via screening of MDA-MB-231 breast cancer cell lines for cytotoxic response. The CYP1A1-dependence of the cytotoxic response of to each tested compound was specifically determined by comparing the cytotoxicity of each compound administered to control cells with that of the compound administered to corresponding cells that overexpressed CYP1A1. […]

The subject of data set [3] is MDA-MB-468 and ZR51 breast cancer and JHH7 liver cancer cell lines. Description: 5 day cytotoxicity, control cells vs sgRNA knock out of AHR. As to conditions: cytotoxicity in control cells compared with AHR sgRNA knock out cells; FIGS. 23 and 24.
Data set [4] relates to ZR-75-1 breast cancer cells. Description: Synergy/antagonism testing. The data set is classed as cell-based. As to conditions: co-treatment with CGS-15943, 120H; FIG. 14. The procedure: 1000 cells per well were seeded in 384 well clear bottom tissue culture plates and incubated overnight at 37° C. and 4% CO2. The following day, compounds were dispensed in a combination grid format using the Tecan Digital Dispenser. Plates were incubated for 5 days and then viability was assayed using CellTiter-Glo® Cellular Viability Assay. Analysis and Synergy plots were generated using the publicly available Combenefit software package.
AHR has been previously described to bind a range of endogenous and exogenous aromatic ligands (Denison et al. Tox. Sci. 2004, see Table 2), resulting in the formation of a nuclear heterodimer with ARNT. The dimer then binds dioxin-responsive elements and drives gene expression, after nuclear translocation. AHR has been described to bind a wide range of aromatic substrates including agonists, antagonists, and modulators.

In the case of `Nc1nc2c(cnn2CCc2ccccc2)c2nc(-c3ccco3)nn12` [BRD-K81225797-001-02-3], the “killing of sensitive (ZR75, MDA-MB-468) versus resistant (HCC1395) cell lines” value in data set [1] was “selective killing”.
Turning to `Cc1ccc2cc3c(ccc4ccccc43)c3c2c1CC3` [3-Methylcholanthrene, reference compound], the “CYP1A1-dependence of the cytotoxic response” value in data set [2] is on record as “CYP1A1-dependent cytotoxic”. Moreover, in data set [3], the “AHR-dependence of the cytotoxic response” value is listed as “dependence upon AHR”.
For the molecule `COc1ccc(-c2cc(=O)c3cc(OC)ccc3o2)c(OC)c1`, the “interaction with CGS-15943 (3D Synergy plot)” value in data set [4] is recorded as “pronounced antagonism to CGS-15943”.

The values above are taken from patent US12358918B2, “Aryl hydrocarbon receptor (AHR) activator compounds as cancer therapeutics” (THE BROAD INSTITUTE, INC., priority 2018, dated 2025).
